Test results: patent US20230150951A1, “2,5- OR 2,6-DISUBSTITUTED HYDROQUINONE DERIVATIVES WITH AT LEAST ONE CARBOXY, SULFO OR AMIDO GROUP USEFUL AS MEDICAMENTS” (OM PHARMA SA, priority 2020, published 2023)
Converted amounts (≈) assume the structure as drawn.

Key:
Pan02 tumor cells = assay: Subcutaneous murine pancreatic cancer syngenic model (Pan02); format: in vivo, C57BL/6 mice; design: Mean % inhibition of tumor volume Pan02 model: concentration or dose not given beside the values
Description: (§1) The objective of this study was to evaluate preclinically the in vivo therapeutic efficacy study of compounds according to the present invention for the treatment of subcutaneously murine pancreatic cancer syngenic model (Pan02) in female C57BL/6 mice and kidney cancer syngenic model (Renca) in female BALB/c mice.
Cell Culture: the Pan02 tumor cells were maintained in vitro with RPMI 1640 medium supplemented with 10% fetal bovine serum at 37° C. in an atmosphere of 5% CO2 in air. The cells in exponential growth phase were harvested and quantitated by cell counter before tumor inoculation.
Tumor Inoculation for Pan02 model: each mouse was inoculated subcutaneously in the right front flank region with Pan02 tumor cells (3×10^6) in 0.1 mL of PBS for tumor development.
(§2) Randomization: The randomization was started when the mean tumor size reaches approximately 100 (80-110) mm^3. For both models, 48 mice were enrolled in the study. All animals were randomly allocated to 6 study groups. Randomization were performed based on “Matched distribution” method using the multi-task method (StudyDirector™ software, version 3.1.399.19). The date of randomization was denoted as day 0.
(§3) Observation and Data Collection: After tumor cells inoculation, the animals were checked daily for morbidity and mortality. During routine monitoring, the animals were checked for any effects of tumor growth and treatments on behavior such as mobility, food and water consumption, body weight gain/loss (body weights were measured twice per week after randomization), eye/hair matting and any other abnormalities. Mortality and observed clinical signs were recorded for individual animals in detail.
(§4) Tumor volumes were measured twice per week after randomization in two dimensions using a caliper, and the volume were expressed in mm3 using the formula: “V=(L×W×W)/2, where V is tumor volume, L is tumor length (the longest tumor dimension) and W is tumor width (the longest tumor dimension perpendicular to L). Tumor weight were measured at the end of study. Dosing as well as tumor and body weight measurements were conducted in a Laminar Flow Cabinet.
(§5) Statistical Analysis: To compare tumor volumes of different groups at a pre-specified day, Bartlett's test was firstly used to check the assumption of homogeneity of variance across all groups. When the p-value of Bartlett's test is >0.05, One-way ANOVA were used to test overall equality of means across all groups.
(§6) If the p-value of the One-way ANOVA is <0.05, post hoc testing by running Tukey's HSD (honest significant difference) tests for all pairwise comparisons, and Dunnett's tests for comparing each treatment group with the vehicle group were performed. When the p-value of Bartlett's test is <0.05, Kruskal-Wallis test were used to test overall equality of medians among all groups. If the p-value the Kruskal-Wallis test is <0.05, post hoc testing by running Conover's non-parametric test for all pairwise comparisons or for comparing each treatment group with the vehicle group were performed, both with single-step p-value adjustment. All statistical analyses were done in R-a language and environment for statistical computing and graphics (version 3.3.1). All tests are two-sided unless otherwise specified, and p-values of <0.05 are regarded as statistically significant.

Renca tumor cells = assay: Subcutaneous kidney cancer syngenic model (Renca); format: in vivo, BALB/c mice; design: concentration or dose not given beside the values
Source text: as §1
The cells in exponential growth phase were harvested and quantitated by cell counter before tumor inoculation.
Tumor Inoculation for Renca model: each mouse was inoculated subcutaneously in the right rear flank region with Renca tumor cells (1×10^6) in 0.1 mL of PBS for tumor development.
as §2, §3, §4, §5, §6

[1] = test system: bleomycin induced pulmonary fibrosis; assay: Bleomycin induced pulmonary fibrosis, 21 days; format: in vivo, mice; conditions: day 21; pirfenidone 100 mg/kg, IVc-059a 15 mg/kg
Description: A total of 40 male Balb/c mice aged 8-10 weeks were used for the study.
Mice were anesthetized using an IP injection of xylazine and ketamine. Once an appropriate plane of anaesthesia was achieved, animals had 1.0 U/kg bleomycin sulphate instilled via intratracheal route. The total volume of liquid was 50 μL.
Dosing of IV and positive control (pirfenidone) started 24 hours after bleomycin instillation.
Drug solution was formulated immediately prior to dosing. For a dose of 15 mg/kg (enough for 12, 30 g mice) 4.5 mg of compound was weighed out. 75 μl (5%) DMSO added and mixed until drug is in solution. 150 μl (10%) solutol added and vortexed gently, 150 μl (10%) PEG400 added and vortexed gently. 1000 μl PBS (pH7) was added and matrix was measured to ensure pH 7.0 was maintained. Remaining PBS (to a total of 1500 μl) was added. Compound remained in solution. […]
Ashcroft score: Lungs from each animal were FFPE, sectioned and stained with H&E according to an in-house protocol. […] Each lung was scored using the Ashcroft grading system to measure degree of inflammation/fibrosis as per Hubner et al., 2008. […]
An entire lung from each animal was formalin fixed and stored in 70% ethanol. […] Percent area covered by trichrome staining was quantified using Qupath and ImageJ software.

physchem = conditions: water
[2] = day 13, 15 mg/kg, 5 μL/g, I.V., QD*5 for 2 weeks

| SMILES | Tumor growth (in words) (Pan02 tumor cells; 15 mg/kg I.V.) | TGI value (Pan02 tumor cells; 15 mg/kg I.V., P<0.05) | Mean % inhibition of tumor volume Pan02 model (Pan02 tumor cells; Day 0) | Mean % inhibition of tumor volume Pan02 model (Pan02 tumor cells; Day 3) | Mean % inhibition of tumor volume Pan02 model (Pan02 tumor cells; Day 6) | Mean % inhibition of tumor volume Pan02 model (Pan02 tumor cells; Day 9) | Mean % inhibition of tumor volume Pan02 model (Pan02 tumor cells; Day 13) | TGI (%) (Pan02 tumor cells; [2]) | Tumor volume ± SEM (mm^3) (Pan02 tumor cells; [2]) | Mean % inhibition of tumor volume Renca model (Renca tumor cells; Day 0) | Mean % inhibition of tumor volume Renca model (Renca tumor cells; Day 3) | Mean % inhibition of tumor volume Renca model (Renca tumor cells; Day 6) | Mean % inhibition of tumor volume Renca model (Renca tumor cells; Day 9) | Mean % inhibition of tumor volume Renca model (Renca tumor cells; Day 13) | Mean % inhibition of tumor volume Renca model (Renca tumor cells; Day 16) | Onset of fibrosis in mouse lung (Ashcroft score) [1] | solubility (physchem) |
| --- | --- | --- | --- | --- | --- | --- | --- | --- | --- | --- | --- | --- | --- | --- | --- | --- | --- |
| O=C(O)c1cc(O)cc(CS(=O)(=O)Cc2cc(O)cc(C(=O)O)c2O)c1O [IVc-059a, 3-((2,5-Dihydroxy-3-carboxyphenyl)methylsulfonylmethyl)-2,5-dihydroxybenzoic acid] | significantly suppressed tumor growth | 20.98% | −0.11% | 19.86% | 18.64% | 18.49% | 20.98% | 20.98% | 148.49 ± 7.05 (8) mm^3 | 0.05% | −0.90% | 5.02% | 14.83% | 23.07% | 19.42% | reduced the onset of fibrosis in mouse lung |  |
| O=C(O)c1cc(NC(=O)c2cc(O)cc(C(=O)Nc3ccc(O)c(C(=O)O)c3)c2O)ccc1O [IIc-007a, 5-(3-(3-carboxy-4-hydroxyphenylaminocarbonyl)-2,5-dihydroxybenzamido)-2-hydroxy benzoic acid] |  |  |  |  |  |  |  |  |  |  |  |  |  |  |  |  | 1.8 mg/mL (≈ 3.84 mM) |
